# Measurements as given in US12291494B2, “Methods of treating fibrosis” (Nogra Pharma Limited, priority 2012, dated 2025).
# Legend:
# Collagen-1 = assay: Liver gene expression by quantitative Real Time PCR: collagen-1; assay type: in vivo, mice; details: liver mRNA, normalized to β-actin, CCl4 group 138.12 ± 34.68
# Procedure: The effect of administration of compound 34 (GED) and the specific CB2 agonist (JWH-133) was evaluated on the level of gene expression of cytokines (IL-1β, TNF-α) and genes involved in the mechanism of fibrosis by quantitative Real Time PCR.
# Total RNA was isolated from livers using Rneasy kit (Macherey Nagel, Hoerdt, France) according to the manufacturer's instructions. RNA quantification was performed using spectrophotometry. After treatment at 37° C. for 30 min with 20-50 units of RNase-free DNase I (Roche Diagnostics Corporation, Indianapolis, IN, USA), oligo-dT primers (Roche Diagnostics Corporation, Indianapolis, USA) were used to synthesize single-stranded cDNA. mRNAs were quantified using SYBR green Master Mix (Applera, Courtaboeuf, France) with murine specific oligonucleotides (see Table 2) in a GeneAmp Abiprism 7000 (Applera, Courtaboeuf, France). In each assay, calibrated and no-template controls were included. Each sample was run in triplicate. SYBR green dye intensity was analyzed using the Abiprism 7000 SDS software (Applera, Courtaboeuf, France). All results were normalized to the unaffected housekeeping gene β-actin.
# TGF-β1 = assay: DSS intestinal fibrosis study: Western blot of colon, TGF-β1; assay type: in vivo, mice; details: whole colon, OD normalized with GAPDH, expressed as percentage of control groups; DSS 153.6 ± 26.25
# Procedure: For the Western blot analysis, 0.5 cm of frozen colonic samples were homogenized in RIPA Buffer containing 50 mM Tris HCl pH 7.6, 150 mM NaCl, 1.5 mM MgCl2, 5 mM EDTA, 1% Triton-X and 10% Glycerol, supplemented with 100 mM Sodium Fluoride (NaF), 2 mM Sodium Orthovanadate (Na3VO4), 10 mM Sodium Pyrophosphate (NaPPi), 1 mM phenylmethanesulphone (PMSF) and a classical protease-inhibitor cocktail containing 10 μg/mL Leupeptin and Aprotinin.
# For each sample, 30 μg of protein was separated by PAGE and electroblotted. Nitrocellulose membranes (100% pure) were incubated (according with a specific protocol for each antibody) with primary antibodies directed against CTGF, Collagen-I and GAPDH (purchased from Abcam, Cambridge, UK; 1:1000 for 2 h at RT), diluted in 5% non-fat milk in 0.1% TBS-t. […] Optical density of target bands was determined using a computer-assisted densitometer and the ImageJ public domain software (W. S., Rasband, ImageJ, U. S. National Institutes of Health, Bethesda, MD; http://rsb.info.nih.gov/ij/, 1997-2011). Tissue levels were expressed as units of Optical Density (OD) per quantity of total proteins, normalized with internal control GAPDH and the results were expressed as percentage of control groups.
# C57BL/6 mice = assay: DSS chronic colitis (Ex. 7): microscopic colonic lesions (H&E, Masson's trichrome); assay type: in vivo
# Procedure: The macroscopic colonic lesions including dilation, thickness and stenosis were scored by an independent observer, unaware of the mice treatment. Tissue specimens from the colon were dissected and immediately frozen or fixed in fresh 4% formaldehyde (FA)/PBS solution for 3 h at room temperature followed by the standard procedure for paraffin embedding. Paraffin embedded tissues transversally sectioned at 3 μm were subject to Hematoxylin/Eosin staining, to assess the inflammatory degree, and Masson trichrome to better assess connective tissue and fibrosis. […] The degree of intestinal inflammation was assessed according to the density and extent of chronic inflammatory infiltrate, loss of goblet cells, and bowel wall thickening. […]
# Intestinal fibrosis was scored as absent, mild, or severe, depending on the density and extent of trichrome-positive connective tissue staining and disruption of tissue architecture.
# CTGF = assay: DSS chronic colitis (Ex. 7): Western blot, CTGF; assay type: in vivo, mice; details: percentage of optical density vs control group, normalized with GAPDH; DSS 115.1%±16.88%
# Procedure: 0.5 cm of frozen colonic samples were cut and mechanically homogenized in RIPA Buffer containing 50 mMTrisHCl pH 7.6, 150 mMNaCl, 1.5 mM MgCl2, 5 mM EDTA, 1% Triton-X and 10% Glycerol, supplemented with 100 mM Sodium Fluoride (NaF), 2 mM Sodium Orthovanadate (Na3VO4), 10 mM Sodium Pyrophosphate (NaPPi), 1 mMphenylmethanesulphone (PMSF) and a classical protease-inhibitor cocktail containing 10 μg/mL Leupeptin and Aprotinin.
# 30 μg of protein for each sample were separated by PAGE and electroblotted. 100% pure Nitrocellulose membranes were incubated (according with a specific protocol for each antibody) with primary antibodies directed against TGF-β1, CTGF, α-SMA, Collagen-I and GAPDH (purchased from Abcam, Cambridge, UK; 1:1000 for 2 h at RT), and IL-13 (purchased from Antibodies online; 1:1000 for 2 h at RT) diluted in 5% non fat-milk in 0.1% TBS-t. […] Optical density of target bands was determined using a computer-assisted densitometer and the ImageJ public domain software (W. S., Rasband, ImageJ, U. S. National Institutes of Health, Bethesda, MD; http://rsb.info.nih.gov/ij/, 1997-2011). Tissue levels were expressed as units of Optical Density (OD) per quantity of total proteins, normalizing with internal control GAPDH and the results were expressed as percentage of control groups.
compound,measurement,setting,value
"COC(Cc1ccc(N)cc1)C(=O)O (racemic) [Compound 34, (±)-2-methoxy-3-(4′-aminophenyl) propionic acid]",Collagen-1,Collagen-1,"75.15 ± 5.23, p = 0.03"
same,Collagen-1,Collagen-1; listed as compound 34,42.81±14.81
same,TGF-β1 (Western blot),TGF-β1,130.5 ± 28.02
same,"intestinal wall architecture (H&E, Masson's trichrome)","C57BL/6 mice; FIG. 12 legend, result in words",restoring of normal intestinal wall architecture
same,Total microscopic score (maximum 10),"C57BL/6 mice; daily oral GED, DSS 6.45±0.82, FIG. 12",3.36±0.55
same,CTGF expression level (Western blot),CTGF,55.57%±17.53%
